Bridge positions count the residues as written; N and C are the ends. Ends that are not written are not given here. Peptide text beside a SMILES is read from it.
How the values were obtained:
[1] = tested on: serum calcium concentration
Protocol: Rats were divided into four groups of seven animals, and each group was assigned at random to a dose of standard or test solution. Low and high doses were chosen from the linear portion of the dose-response curve. For the salmon calcitonin standard, the values were 0.7 and 2.1 mcg. peptide/100 g. body weight (BW). This dose approximates 3 and 9 MU/100 g. BW. Peptides were given by subcutaneous injection (0.2 ml/100 g. BW) and blood was withdrawn 1 hour later for serum calcium determination. Sera are processed and analyzed within two hours of collection.

[2] = literature values; cited from earlier work

| Molecule | hypocalcemic potency [2] | further results |
| --- | --- | --- |
| CC(C)C[C@H](NC(=O)[C@H](CCCCN)NC(=O)CNC(=O)[C@H](CC(C)C)NC(=O)[C@@H](NC(=O)[C@@H]1CSSC[C@H](N)C(=O)N[C@@H](CO)C(=O)N[C@@H](CC(N)=O)C(=O)N[C@@H](CC(C)C)C(=O)N[C@@H](CO)C(=O)N[C@@H]([C@@H](C)O)C(=O)N1)C(C)C)C(=O)N[C@@H](CO)C(=O)N[C@@H](CCC(N)=O)C(=O)N[C@@H](CCC(=O)O)C(=O)N[C@@H](CC(C)C)C(=O)N[C@@H](Cc1c[nH]cn1)C(=O)N[C@@H](CCCCN)C(=O)N[C@@H](CC(C)C)C(=O)N[C@@H](CCC(N)=O)C(=O)N[C@H](C(=O)N[C@@H](Cc1ccc(O)cc1)C(=O)N1CCC[C@H]1C(N)=O)[C@@H](C)O [calcitonin-(1-23)-peptide amide, Calcitonin-(1-23)-peptide amide] (H-CSNLSTCVLGKLSQELHKLQTYP-NH2; disulfide 1-7) | – | biological potency ([1]; rat, in vivo, sc): 11.5 IU/mg |
| CC(C)C[C@H](NC(=O)[C@H](CCCCN)NC(=O)CNC(=O)[C@H](CC(C)C)NC(=O)[C@@H](NC(=O)[C@@H]1CSSC[C@H](N)C(=O)N[C@@H](CO)C(=O)N[C@@H](CC(N)=O)C(=O)N[C@@H](CC(C)C)C(=O)N[C@@H](CO)C(=O)N[C@@H]([C@@H](C)O)C(=O)N1)C(C)C)C(=O)N[C@@H](CO)C(=O)N[C@@H](CCC(N)=O)C(=O)N[C@@H](CCC(=O)O)C(=O)N[C@@H](CC(C)C)C(=O)N[C@@H](Cc1c[nH]cn1)C(=O)N[C@@H](CCCCN)C(=O)N[C@@H](CC(C)C)C(=O)N[C@@H](CCC(N)=O)C(=O)N[C@H](C(=O)N[C@@H](Cc1ccc(O)cc1)C(=O)N1CCC[C@H]1C(=O)N[C@@H](CCCNC(=N)N)C(=O)N[C@H](C(=O)N[C@@H](CC(N)=O)C(=O)N[C@H](C(=O)NCC(=O)N[C@@H](CO)C(=O)NCC(=O)N[C@H](C(=O)N1CCC[C@H]1C(N)=O)[C@@H](C)O)[C@@H](C)O)[C@@H](C)O)[C@@H](C)O [standard salmon calcitonin, Salmon calcitonin] | – | potency of the standard, independently determined ([1]; standard salmon calcitonin used, independently determined): greater than 4,000 IU/mg |
| (1,7-α-L-aminosuberic acid) eel calcitonin | about 3400 Iu/mg | – |
| eel calcitonin (CSNLSTCVLGKLSQELHKLQTYPRTDVGAGTP-NH2; disulfide 1-7; ends not checked; UniProt P01262 1-32, looked up) [synthetic eel calcitonin, synthetic eel calcitonin of Monikawa et al] | around 4300 Iu/mg | – |

Reference: patent publication US4605515A, “Calcitonin-(1-23)-peptide amide” (Armour Pharmaceutical Company, priority 1984, dated 1986)
